Read-outs that look alike come from different tables or passages of the source.
Legend:
TNF-α = assay: Inhibition of TNF-α induced in human peripheral blood mononuclear cells; type: cell-based; settings: read-out: IC50 (nM), cytokine TNF-α
IL-2 = assay: Inhibition of IL-2 induced in human peripheral blood mononuclear cells; type: cell-based; settings: human PBMC, stimulus SEB; read-out: IC50 (nM), cytokine IL-2
Method: 8. Inhibitory assay of inflammatory factors TNF-α, IL-2, INF-γ
Determination of TNF-α, IL-2 and INF-γ induced by LPS/SEB in human peripheral blood mononuclear cells:
1. The purchased PBMC frozen cells were thawed at 37° C., transferred to RMPI1640 medium, and incubated overnight at 37° C. in an incubator containing 5% of CO2.
2. The next day, the cells were planked at 2×10^5 cells/well, with 100 μL per well.
4. LPS stimulus was added to each well at a final concentration of 10 ng/ml.
5. Incubation was carried out overnight at […] in an incubator containing 5% of CO2.
6. On the third day, the cell culture supernatant was collected, and cytokine assay was performed using an MSD method.

INF-γ = assay: Inhibition of INF-γ induced in human peripheral blood mononuclear cells; type: cell-based
PDE4D3 = PDE4D3 (Homo sapiens, UniProt Q08499); assay: Inhibition assay of PDE4D3 enzyme (TR-FRET kit); type: biochemical
Method: 2. Inhibition assay of PDE4D3 enzyme:
(§1) Materials and Instruments:
FAM substrate: A stock solution of 20 μM FAM substrate was diluted to 200 nM with PDE assay buffer. 12.5 μL of the diluted substrate was added to each reaction well.
(§2) 5 μL of the compound stock solution was added to 45 μL of DMSO to prepare a 1 mM diluent. 5 μL of the 1 mM diluent was added to 45 μL of PDE assay buffer to prepare a gradient dilution starting point. Then, according to the method of adding 5 μL of the previous concentration solution to 15 μL of PDE assay buffer, gradient dilution was carried out for 9 times to prepare compound working solutions with 10 concentrations. The working solutions were added to compound wells at 2.5 μL/well.
PDE4D3: 0.054 μL of a PDE4D3 recombinase stock solution was added to 1500 μL of PDE buffer, and the mixture was added to all compound wells and positive control wells at 10 μL/well. 10 μL of PDE assay buffer was added to substrate control wells.
Binding solution: 3750 μL of binding buffer A and 3750 μL of binding buffer B were mixed well. Then, 150 μL of a binder was added into the mixture and mixed well. 7.5 μL of a Tb donor was added and mixed well. The obtained mixture was added to all wells at 50 μL/well.
S520=Read value of sample 520 nm
S490=Read value of sample 490 nm
Tb520=Read value of Tb only 520 nm
Tb490=Read value of Tb only 490 nm
FRETp=Positive control FRET
FRETsub=Substrate control FRET.

PDE4A1 = target: T1, PDE4A1 (Homo sapiens, UniProt P27815); assay: Inhibition assay of PDE4A1 enzyme (FP kit); type: biochemical
T1 construct: purchased BPS 60340
Method: 3. Inhibition assay of PDE4A1 enzyme:
as §1
(§3) FAM substrate: 25 μL of a FAM substrate stock solution was added into 2500 μL of PDE assay buffer. 25 μL of the diluted substrate was added to each reaction well.
as §2, with “5” for “2.5”
(§4) PDE4A1: First, a PDE4A1 stock solution was diluted by 100 times to a concentration of 4.9 ng/μL, 1.8 μL of the diluent was added to 2200 μL of PDE assay buffer, and the mixture was added to all compound wells and positive control wells at 20 μL/well. 20 μL of PDE assay buffer was added to substrate control wells.
Binding solution: 95 μL of binding buffer was added into 9.5 mL of binder diluent, and then mixed well. The obtained mixture was added to all wells at 100 μL/well.
(§5) FPsub=Substrate control FP.

PDE4B2 = target: T2, PDE4B2 (Homo sapiens, UniProt Q07343); assay: Inhibition assay of PDE4B2 enzyme (FP kit); type: biochemical
T2 construct: purchased BPS 60343
Method: 4. Inhibition assay of PDE4B2 enzyme:
as §1, §3
as §2, with “5” for “2.5”
as §4, with “PDE4B2:” for “PDE4A1:”, “PDE4B2” for “PDE4A1”, “5.2” for “4.9”, “3.2” for “1.8”
Binding solution: 95 μL of binder was added into 9.5 mL of binder diluent, and then mixed well. The obtained mixture was added to all wells at 100 μL/well.
as §5

PDE4C1 = target: T3, PDE4C1 (Homo sapiens, UniProt Q08493); assay: Inhibition assay of PDE4C1 enzyme (FP kit); type: biochemical
T3 construct: purchased BPS 60384
T3 sequence (Q08493 whole entry): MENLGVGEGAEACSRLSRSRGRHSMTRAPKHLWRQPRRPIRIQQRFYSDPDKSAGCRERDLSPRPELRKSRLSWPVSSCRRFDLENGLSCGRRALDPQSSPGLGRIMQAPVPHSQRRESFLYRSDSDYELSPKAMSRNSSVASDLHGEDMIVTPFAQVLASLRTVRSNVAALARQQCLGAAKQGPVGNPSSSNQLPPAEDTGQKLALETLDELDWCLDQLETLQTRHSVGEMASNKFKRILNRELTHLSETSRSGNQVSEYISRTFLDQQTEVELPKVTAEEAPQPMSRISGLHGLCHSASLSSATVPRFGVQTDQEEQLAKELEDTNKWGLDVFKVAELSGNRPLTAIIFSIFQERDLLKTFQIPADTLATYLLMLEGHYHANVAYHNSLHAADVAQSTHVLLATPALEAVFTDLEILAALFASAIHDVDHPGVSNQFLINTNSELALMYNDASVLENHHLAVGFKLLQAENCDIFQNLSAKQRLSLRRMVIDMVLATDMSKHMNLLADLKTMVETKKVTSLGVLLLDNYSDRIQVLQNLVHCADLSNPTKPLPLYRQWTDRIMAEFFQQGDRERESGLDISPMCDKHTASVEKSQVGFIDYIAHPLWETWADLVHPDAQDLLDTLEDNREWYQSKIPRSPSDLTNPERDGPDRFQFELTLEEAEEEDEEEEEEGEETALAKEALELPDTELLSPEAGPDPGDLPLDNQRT
Method: 5. Inhibition assay of PDE4C1 enzyme:
as §1
FAM substrate: 12.5 μL of a FAM substrate stock solution was added into 1250 μL of PDE assay buffer. 12.5 μL of the diluted substrate was added to each reaction well.
as §2
as §4, with “PDE4C1:” for “PDE4A1:”, “PDE4C1” for “PDE4A1”, “3.2” for “4.9”, “13.75” for “1.8”, “1100” for “2200”, “10” for “20”
Binding solution: 50 μL of binder was added into 5 mL of binder diluent, and then mixed well. The obtained mixture was added to all wells at 50 μL/well.
as §5

PDE1C = PDE1C (Homo sapiens, UniProt Q14123); assay: Selective inhibitory activity assay, PDE1C; type: biochemical; settings: read-out: Inhibition rate (%) of PDE1C
Sequence of PDE1C (Q14123 whole entry, species assumed): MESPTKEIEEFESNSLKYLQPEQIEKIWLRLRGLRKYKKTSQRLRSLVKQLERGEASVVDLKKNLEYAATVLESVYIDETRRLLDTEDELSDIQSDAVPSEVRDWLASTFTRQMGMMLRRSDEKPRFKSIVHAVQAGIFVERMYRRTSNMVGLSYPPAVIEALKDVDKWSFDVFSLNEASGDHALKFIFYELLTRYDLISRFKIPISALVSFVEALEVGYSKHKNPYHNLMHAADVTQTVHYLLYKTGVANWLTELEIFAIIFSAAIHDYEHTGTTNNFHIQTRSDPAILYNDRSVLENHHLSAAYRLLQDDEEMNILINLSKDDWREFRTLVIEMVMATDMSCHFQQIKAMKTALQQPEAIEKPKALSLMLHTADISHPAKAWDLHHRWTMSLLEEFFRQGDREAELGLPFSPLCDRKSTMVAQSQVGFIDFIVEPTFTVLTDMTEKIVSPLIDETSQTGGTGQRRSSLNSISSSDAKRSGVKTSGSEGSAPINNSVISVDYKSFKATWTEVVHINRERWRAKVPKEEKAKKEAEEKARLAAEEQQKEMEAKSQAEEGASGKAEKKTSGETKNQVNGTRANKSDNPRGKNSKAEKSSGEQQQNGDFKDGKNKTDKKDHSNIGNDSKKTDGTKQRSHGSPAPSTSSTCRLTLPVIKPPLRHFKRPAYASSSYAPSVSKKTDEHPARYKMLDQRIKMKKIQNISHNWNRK
Method: (§6) 7. Selective inhibitory activity assay for PDE1, 2, 3, 5, 7, 10 and 11 enzymes
(§7) The selective specificity of compounds for PDE4 was assessed by assaying single concentrations of the compounds. For example, PDE1a enzyme, PDElc enzyme, PDE2a enzyme, PDE3a enzyme, PDE3b enzyme, PDE5a1 enzyme, PDE7a enzyme, PDE7b enzyme, PDE10a1 enzyme and PDE11a4 enzyme were tested. The selective inhibitory effects of different compounds on the enzymatic activities of PDEIC, PDE2A, PDE3B, PDE5A1, PDE7A, and PDE10A1 at concentrations of 10 μM and 1 μM, respectively, are shown in the table below: […]

PDE2A = PDE2A (Homo sapiens, UniProt O00408); assay: Selective inhibitory activity assay, PDE2A; type: biochemical; settings: read-out: Inhibition rate (%) of PDE2A
Sequence of PDE2A (O00408 whole entry, species assumed): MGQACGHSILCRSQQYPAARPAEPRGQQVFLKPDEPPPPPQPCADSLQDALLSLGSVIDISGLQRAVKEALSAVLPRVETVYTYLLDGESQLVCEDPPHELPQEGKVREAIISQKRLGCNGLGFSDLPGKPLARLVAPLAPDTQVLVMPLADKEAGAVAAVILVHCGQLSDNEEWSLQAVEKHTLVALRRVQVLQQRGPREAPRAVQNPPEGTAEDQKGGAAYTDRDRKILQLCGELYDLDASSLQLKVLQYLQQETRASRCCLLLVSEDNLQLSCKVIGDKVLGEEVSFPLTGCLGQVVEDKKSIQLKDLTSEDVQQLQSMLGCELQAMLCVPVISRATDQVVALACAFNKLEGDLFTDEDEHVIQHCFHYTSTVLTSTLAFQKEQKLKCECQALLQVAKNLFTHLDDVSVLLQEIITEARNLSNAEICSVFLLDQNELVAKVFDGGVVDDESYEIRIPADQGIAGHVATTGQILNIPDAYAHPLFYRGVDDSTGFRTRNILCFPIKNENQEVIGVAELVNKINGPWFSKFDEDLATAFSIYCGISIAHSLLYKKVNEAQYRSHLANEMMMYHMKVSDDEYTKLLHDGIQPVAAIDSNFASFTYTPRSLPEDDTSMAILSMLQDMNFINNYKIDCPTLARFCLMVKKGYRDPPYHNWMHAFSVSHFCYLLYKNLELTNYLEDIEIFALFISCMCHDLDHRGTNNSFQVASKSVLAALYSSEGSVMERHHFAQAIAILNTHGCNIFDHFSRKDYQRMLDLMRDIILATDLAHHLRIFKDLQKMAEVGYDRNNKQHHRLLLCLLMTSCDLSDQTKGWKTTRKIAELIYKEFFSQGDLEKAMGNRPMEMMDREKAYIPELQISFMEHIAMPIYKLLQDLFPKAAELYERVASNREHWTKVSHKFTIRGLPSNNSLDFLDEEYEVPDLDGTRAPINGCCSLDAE
Method: as §6, §7

PDE3B = PDE3B (Homo sapiens, UniProt Q13370); assay: Selective inhibitory activity assay, PDE3B; type: biochemical; settings: read-out: Inhibition rate (%) of PDE3B
Sequence of PDE3B (Q13370 whole entry, species assumed): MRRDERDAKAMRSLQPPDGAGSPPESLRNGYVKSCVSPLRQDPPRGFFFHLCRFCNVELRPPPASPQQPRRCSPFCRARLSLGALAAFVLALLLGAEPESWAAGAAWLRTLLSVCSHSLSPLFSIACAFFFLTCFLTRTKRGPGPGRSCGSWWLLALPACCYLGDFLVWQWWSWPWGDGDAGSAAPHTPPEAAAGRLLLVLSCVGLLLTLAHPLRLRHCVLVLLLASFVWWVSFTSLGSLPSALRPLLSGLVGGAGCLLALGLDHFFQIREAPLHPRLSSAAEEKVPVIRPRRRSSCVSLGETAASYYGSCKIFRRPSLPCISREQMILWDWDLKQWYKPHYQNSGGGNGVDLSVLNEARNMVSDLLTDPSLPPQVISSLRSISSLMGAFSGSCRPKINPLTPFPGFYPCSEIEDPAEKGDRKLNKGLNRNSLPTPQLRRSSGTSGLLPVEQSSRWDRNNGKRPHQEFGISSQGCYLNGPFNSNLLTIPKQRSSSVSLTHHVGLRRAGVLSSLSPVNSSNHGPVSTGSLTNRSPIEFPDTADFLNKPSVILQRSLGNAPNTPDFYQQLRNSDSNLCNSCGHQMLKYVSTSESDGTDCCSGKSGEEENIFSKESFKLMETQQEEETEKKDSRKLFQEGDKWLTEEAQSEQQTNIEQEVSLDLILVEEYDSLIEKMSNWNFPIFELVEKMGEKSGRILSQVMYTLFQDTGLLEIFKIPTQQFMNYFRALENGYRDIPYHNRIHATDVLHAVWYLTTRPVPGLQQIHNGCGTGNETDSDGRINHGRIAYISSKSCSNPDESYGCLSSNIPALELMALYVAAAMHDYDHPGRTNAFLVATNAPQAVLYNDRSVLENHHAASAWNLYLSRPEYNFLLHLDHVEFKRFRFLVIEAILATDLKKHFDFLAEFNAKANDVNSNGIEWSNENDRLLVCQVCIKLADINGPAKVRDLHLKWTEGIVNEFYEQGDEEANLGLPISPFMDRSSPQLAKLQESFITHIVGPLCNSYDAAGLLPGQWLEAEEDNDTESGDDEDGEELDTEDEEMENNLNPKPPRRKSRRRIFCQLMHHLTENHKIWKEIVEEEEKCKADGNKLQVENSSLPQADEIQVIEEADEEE
Method: as §6, §7

PDE5A1 = PDE5A1 (Homo sapiens, UniProt O76074); assay: Selective inhibitory activity assay, PDE5A1; type: biochemical; settings: read-out: Inhibition rate (%) of PDE5A1
Method: as §6, §7

PDE7A = PDE7A (Homo sapiens, UniProt Q13946); assay: Selective inhibitory activity assay, PDE7A; type: biochemical; settings: read-out: Inhibition rate (%) of PDE7A
Sequence of PDE7A (Q13946 whole entry, species assumed): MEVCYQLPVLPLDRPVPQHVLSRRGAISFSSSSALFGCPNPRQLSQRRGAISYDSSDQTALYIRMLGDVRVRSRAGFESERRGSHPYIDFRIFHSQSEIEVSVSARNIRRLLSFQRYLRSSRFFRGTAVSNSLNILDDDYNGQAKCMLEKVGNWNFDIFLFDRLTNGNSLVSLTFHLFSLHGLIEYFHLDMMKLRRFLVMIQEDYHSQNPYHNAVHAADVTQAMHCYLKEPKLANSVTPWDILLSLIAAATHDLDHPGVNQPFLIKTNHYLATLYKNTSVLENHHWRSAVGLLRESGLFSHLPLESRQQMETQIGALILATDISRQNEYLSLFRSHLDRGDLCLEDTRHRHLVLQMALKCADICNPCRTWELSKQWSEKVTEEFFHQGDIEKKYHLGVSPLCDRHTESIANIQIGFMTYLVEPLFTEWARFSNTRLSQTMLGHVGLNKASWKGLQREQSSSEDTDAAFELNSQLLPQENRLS
Method: as §6, §7

PDE10A1 = PDE10A1 (Homo sapiens, UniProt Q9Y233); assay: Selective inhibitory activity assay, PDE10A1; type: biochemical; settings: read-out: Inhibition rate (%) of PDE10A1
Sequence of PDE10A1 (Q9Y233 1-779 isoform Q9Y233-1, species assumed): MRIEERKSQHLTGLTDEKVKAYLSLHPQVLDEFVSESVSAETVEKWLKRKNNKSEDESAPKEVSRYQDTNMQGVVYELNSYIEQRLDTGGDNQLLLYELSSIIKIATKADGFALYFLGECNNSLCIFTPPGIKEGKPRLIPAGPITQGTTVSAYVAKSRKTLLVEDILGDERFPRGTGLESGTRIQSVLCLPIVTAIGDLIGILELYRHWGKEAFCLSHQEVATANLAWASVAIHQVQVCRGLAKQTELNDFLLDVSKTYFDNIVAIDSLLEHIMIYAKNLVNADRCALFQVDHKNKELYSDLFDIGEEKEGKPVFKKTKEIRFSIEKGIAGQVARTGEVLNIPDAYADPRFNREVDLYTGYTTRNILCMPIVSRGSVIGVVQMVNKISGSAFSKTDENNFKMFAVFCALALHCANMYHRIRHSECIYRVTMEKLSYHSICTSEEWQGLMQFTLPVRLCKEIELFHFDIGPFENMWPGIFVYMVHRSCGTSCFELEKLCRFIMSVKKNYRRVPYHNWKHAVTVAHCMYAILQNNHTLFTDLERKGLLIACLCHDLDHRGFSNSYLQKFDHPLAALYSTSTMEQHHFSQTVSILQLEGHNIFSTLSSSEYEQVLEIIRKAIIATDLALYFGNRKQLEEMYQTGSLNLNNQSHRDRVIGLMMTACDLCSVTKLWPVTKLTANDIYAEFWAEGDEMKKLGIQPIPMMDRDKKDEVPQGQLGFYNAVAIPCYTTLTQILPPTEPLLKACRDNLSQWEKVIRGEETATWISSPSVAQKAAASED
Method: as §6, §7

[1] = Homo sapiens, PBMC, read-out: IC50 (nM), cytokine INF-r, human PBMC, stimulus SEB
[2] = human PBMC, stimulus LPS, read-out: IC50 (nM), cytokine INF-r

SMILES	IC50 (TNF-α; human PBMC, stimulus LPS) [nM]	IC50 (IL-2) [nM]	IC50 (INF-γ; [1]) [nM]	IC50 (INF-γ; [2]) [nM]	inhibition at 1 µM (PDE1C) [%]	inhibition at 10 µM (PDE1C) [%]	inhibition at 1 µM (PDE2A) [%]	inhibition at 10 µM (PDE2A) [%]	inhibition at 1 µM (PDE3B) [%]	inhibition at 10 µM (PDE3B) [%]	inhibition at 1 µM (PDE5A1) [%]	inhibition at 1 µM (PDE7A) [%]	inhibition at 10 µM (PDE7A) [%]	inhibition at 1 µM (PDE10A1) [%]	inhibition at 10 µM (PDE10A1) [%]	also measured
O=C(Nc1c(Cl)cncc1Cl)c1ccc(OC(F)F)c(OCC2CC2)c1 [Roflumilast]	2.83	14.7	10.9	1.4												
CCCCCc1ccc(NC(C)=O)c2c1C(=O)N([C@H](CS(C)(=O)=O)c1ccc(OC)c(OCC)c1)C2=O [Example 9, (S)-2-[1-(3-ethoxy-4-methoxyphenyl)-2-alkylsulfonylethyl]-4-acetamido-7-pentyl isoindoline-1,3-diketone]	0.82	0.44	1.82	0.43	0.49	30.6	5.83	12.2	5.44	0.81	1.99	20.8	44.5	0	10.1	IC50 (PDE4D3): < 5 nM; IC50 (PDE4A1): < 100 nM; IC50 (PDE4B2): < 100 nM; IC50 (PDE4C1): < 200 nM; inhibition at 10 µM (PDE5A1; 10 μM): 5.74%
CCOc1cc([C@@H](CS(C)(=O)=O)N2C(=O)c3cccc(NC(C)=O)c3C2=O)ccc1OC [Example 0, Apremilast, reference compound]		110	77.8		7.77	37.1	2.95	2.35	2.44	1.56	3.97	9.41	11.1	0	-2.75	IC50 (TNF-α; Homo sapiens, PBMC): 63.8 nM; IC50 (INF-γ; Homo sapiens, PBMC, read-out: IC50 (nM), cytokine INF-r, human PBMC, stimulus LPS): 15.4 nM
